Columns and labels:
Aβ1−42 fibrils = target: T1, Aβ1−42 fibrils (Homo sapiens, UniProt P05067); assay: Competition binding assay against [^3H]PiB, Aβ1−42 fibrils; conditions: read-out: Ki Aβ
T1 construct: 1 mg of β-amyloid1–42 peptide (Abcam, Cambridge, UK); purchased Abcam
Procedure: After the dissolution of 1 mg of β-amyloid1–42 peptide (Abcam, Cambridge, UK) in 50 μL of DMSO, 925 μL of Milli-Q® water was added to it, and the mixture was stirred. Finally, 25 μL of 1M Tris HCl, pH 7.4 was added to bring the final peptide concentration to 1 mg/mL. The mixture was then left to incubate at 37 °C for 30 h with shaking at 900 rpm. To separate the non-aggregated monomers from the formed fibrils, the reaction mixture was centrifuged at 12,000× g for 5 min, and the resulting pellet was washed three times with 500 μL of 20 mM Tris-HCl, pH 7.4. The supernatants from the three centrifugation steps were combined, and the concentration of the monomer in the resulting supernatant was determined in a BCA assay (Thermo Fisher Scientific, Waltham, MA, USA) (with a BSA standard curve). Determination of the concentration of fibrils formed was carried out by subtracting the amount of β-amyloid1−42 peptide monomer in the supernatant from the initial amount used for fibrillation.
The pellets of the fibrils obtained above (Section 4.2.1) were resuspended in 20 mM of Tris-HCl, pH 7.4 and diluted as needed for the binding assays.
(§1) A fixed concentration of [^3H]DCVJ (10 nM) and α-synuclein aggregates (125 nM), prepared as described above (Section 4.2.3), was used with different final concentrations of the DABTAs from 0.01 to 100 nM (see SI Figure S1). The experiment was carried out in quintuplicate for each concentration. The mixture was incubated for 2 h in a final volume of 200 μL per well after dilution with 20 mM of Tris-HCl, pH 7.4. The incubated mixtures were filtered through a Perkin Elmer GF/B glass filter via a TOMTEC cell harvester and immediately washed thrice with 1 mL of deionized water. The filters containing the bound ligands were dried and afterwards mixed with 3 mL of BetaPlate Scint solution (Perkin Elmer Life Sciences, Waltham, MA, USA) and left there for 2 h before counting in a Wallac 1450 MicroBeta TriLux Liquid Scintillation Counter (PerkinElmer Life Sciences, Waltham, MA, USA). For the determination of the inhibition constants, data were analyzed using GraphPad Prism software (version 7.0) to obtain IC50 values by fitting the data to the equation Y = bottom + (top − bottom)/(1 + 10(x − log IC50)). Ki values were calculated from IC50 values using the equation Ki = IC50/(1 + [radioligand]/Kd). […] Further protocol was carried out as for [^3H]DCVJ (see SI Figure S3).
Further procedures followed the same already described in Section 4.2.3.1 (See SI Figure S4).

tau fibrils = tau fibrils (Homo sapiens, UniProt P10636); assay: Competition binding assay against [^3H]DCVJ, tau fibrils; conditions: [^3H]DCVJ was used (20 nM); tau aggregates 125 nM
Procedure: as §1, with “Recombinant tau monomer (R&D systems, Minneapolis, MN, USA) was dissolved in 20 mM of Tris HCl, pH 8.0, 100 mM of NaCl, 25 μM of low-MW heparin, and 0.5 mM of dithiothreitol to a final concentration of 300 µg/mL. The mixture was incubated with shaking at 900 rpm at 37 °C for 48 h. To separate the non-aggregated monomers from the formed fibrils, the reaction mixture was centrifuged at 12,000× g for 5 min, and the resulting pellet was washed three times with 500 μL of 20 mM Tris-HCl, pH 7.4. The supernatants from the three centrifugation steps were combined, and the concentration of the monomer in the resulting supernatant was determined in a BCA assay(Thermo Fisher Scientific, Waltham, MA, USA) (with a BSA standard curve). Determination of the concentration of fibrils formed was carried out by subtracting the amount of tau peptide monomer in the supernatant from the initial amount used for fibrillation. The pellets of the fibrils obtained above (Section 4.2.1) were resuspended in 20 mM of Tris-HCl, pH 7.4 and diluted as needed for the binding assays. A fixed” for “A fixed”, “Figure S3). Fixed concentrations (125 nM) of Aβ1−42, tau aggregates, and [^3H]DCVJ (10 nM and 20 nM for the Aβ1−42 and tau competition experiments respectively) were used with different concentrations of cold versions of the tracers from 1 to 1000 nM (See SI Figure S2). The experiment was performed in quadruplicate for each concentration. Further procedures followed the same already described in Section 4.2.3.1.” for “Figure S3).”

[1] = Solubility in the incubation medium of the binding assays; assay type: physicochemical; conditions: incubation buffer of the binding assays

T1 sequence (P05067 672-713): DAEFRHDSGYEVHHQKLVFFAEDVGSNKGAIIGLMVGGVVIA
Chain of tau fibrils (P10636 2-758): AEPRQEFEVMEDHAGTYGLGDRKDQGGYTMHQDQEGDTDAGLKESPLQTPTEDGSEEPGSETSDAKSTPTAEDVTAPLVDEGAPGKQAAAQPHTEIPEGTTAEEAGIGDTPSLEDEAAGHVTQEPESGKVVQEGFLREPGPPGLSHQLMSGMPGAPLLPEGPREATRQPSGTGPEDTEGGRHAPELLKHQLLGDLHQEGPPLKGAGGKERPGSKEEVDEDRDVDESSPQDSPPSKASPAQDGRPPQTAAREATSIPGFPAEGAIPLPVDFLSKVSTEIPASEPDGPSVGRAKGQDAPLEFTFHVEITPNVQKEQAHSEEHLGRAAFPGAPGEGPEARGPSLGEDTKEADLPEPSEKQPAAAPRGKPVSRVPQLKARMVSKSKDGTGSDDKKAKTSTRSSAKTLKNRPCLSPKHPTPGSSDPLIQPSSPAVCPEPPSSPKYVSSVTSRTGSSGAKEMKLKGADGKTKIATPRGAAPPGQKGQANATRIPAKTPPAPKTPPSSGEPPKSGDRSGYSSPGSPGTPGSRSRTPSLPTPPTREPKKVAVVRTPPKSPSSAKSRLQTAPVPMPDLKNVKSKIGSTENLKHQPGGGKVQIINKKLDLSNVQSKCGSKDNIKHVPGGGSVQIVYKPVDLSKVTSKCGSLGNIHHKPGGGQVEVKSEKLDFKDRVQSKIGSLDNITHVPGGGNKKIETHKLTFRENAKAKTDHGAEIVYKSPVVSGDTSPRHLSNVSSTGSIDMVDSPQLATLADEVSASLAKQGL

SMILES | Ki (Aβ1−42 fibrils) | Ki (tau fibrils) | solubility in the incubation medium [1]
FCCOc1cnc(-c2csc(-c3nc(-c4ccc5c(c4)OCO5)cs3)n2)nc1 [f5, 4-(Benzo[d][1,3]dioxol-5-yl)-4′-(5-(2-fluoroethoxy)pyrimidin-2-yl)-2,2′-bithiazole] | 155 nM | 515 nM | –
FCCOCCOc1cnc(-c2csc(-c3nc(-c4ccc5c(c4)OCO5)cs3)n2)nc1 [f6, 4-(Benzo[d][1,3]dioxol-5-yl)-4′-(5-(2-(2-fluoroethoxy)ethoxy)pyrimidin-2-yl)-2,2′-bithiazole] | 96.7 nM | 437 nM | –
FCCOc1cnc(-c2csc(-c3nc(-c4cnc5c(c4)OCO5)cs3)n2)nc1 [f4, 6-(4′-(5-(2-Fluoroethoxy)pyrimidin-2-yl)-[2,2′-bithiazol]-4-yl)-[1,3]dioxolo[4,5-b]pyridine] | 185 nM | 465 nM | –
Fc1ncc(-c2csc(-c3nc(-c4cnc5c(c4)OCO5)cs3)n2)cn1 [d10] | 214 nM | > 1000 nM | decreased solubility

— PMC10671360, “In Silico and In Vitro Study towards the Rational Design of 4,4′-Disarylbisthiazoles as a Selective α-Synucleinopathy Biomarker” (International Journal of Molecular Sciences, 2023)
